The values below come from PMC3885546, “Structural Determinants of the 5′-Methylthioinosine Specificity of Plasmodium Purine Nucleoside Phosphorylase” (PLoS ONE, 2014).

Positions count from the first letter of the chain named. Names may count otherwise. Read-outs that look alike come from different tables or passages of the source. Marks after values point to notes of the source that are not given here.

In data set [1] the test system is P. falciparum. Further details: method as in PMID 22096507. The note with it: Aotus model; cited from earlier work.
Data set [2] addresses T1, Pf V66I:V73I:Y160F PNP (Plasmodium falciparum, UniProt Q8T9Z7, V66I/V73I/Y160F).
T1 construct: made in house; host or cells: Escherichia coli Top 10
As to the kind of experiment: Inhibition by immucillins (initial and slow onset). Type of data set: biochemical. As to conditions: initial. Here is the method: (§1) Kinetic assays were completed in 50 mM KH2PO4 at pH 7.4 measuring phosphorylysis of inosine or MTI by PNP in a coupled reaction with 60 milliunits/ml xanthine oxidase to convert hypoxanthine to uric acid. […] Assays were performed with excess substrate in the presence of inhibitors. Inhibition studies measured both initial (Ki) and slow onset inhibition (Ki*) for inhibitors. The initial onset inhibition was analyzed by using the following equation: ν ο = (k cat×S)/(K m(1+I/Ki)+S), ν ο is the steady state rate, k cat catalytic rate, S is substrate concentration, Km is Michealis constant for inosine, I is inhibitor concentration, and Ki is the equilibrium dissociation constant.

The target in data set [3] is T2, Pf Val66Ile PNP (Plasmodium falciparum, UniProt Q8I3X4, V66I).
T2 construct: made in house; host or cells: Escherichia coli Top 10
The experiment in a line: Inhibition by immucillins (initial and slow onset). Type of data set: biochemical. The note with it: slow onset. Here is the method: as §1

Data set [4] deals with T3, Pf Tyr160Phe PNP (Plasmodium falciparum, UniProt Q8T9Z7, Y160F).
T3 construct: made in house; host or cells: Escherichia coli Top 10
The experiment in a line: Inhibition by immucillins (initial and slow onset). It counts as biochemical. As to conditions: initial. Here is the method:
as §1

Data set [5] concerns the target T4, Pf V66I:V73I PNP (Plasmodium falciparum, UniProt Q8T9Z7, V66I/V73I).
T4 construct: made in house; host or cells: Escherichia coli Top 10
As to the kind of experiment: Inhibition by immucillins (initial and slow onset). As to conditions: initial. It counts as biochemical. Here is the method:
as §1

Data set [6] relates to P. falciparum. The note with it: purine-rich environment of cultured red blood cells; cited from earlier work.
The target of data set [7] is TgPNPWT. The note with it: TgPNP WT, ref Chaudhary, et al. [18], cited from earlier work.
Data set [8] relates to TgPNPWT. As to the kind of experiment: Inhibition by immucillins (literature values). It counts as biochemical, Toxoplasma gondii. As to conditions: TgPNP versus PfPNP.
The subject of data set [9] is PfPNP versus mammalian PNP. The arrangement: method as in PMID 15576366. The note with it: cited from earlier work.
Data set [10] deals with the molecule itself. The experiment in a line: SEC; Superose 12 gel filtration, 0.1 ml of 1 mg/ml loaded, 20 mM HEPES, 50 mM KCl, 5 mM KH2PO4, 0.1 mM DTT, pH 7.4, 0.5 ml/min; self-association (hexamer).
Data set [11] concerns the molecule itself. As to the kind of experiment: crystal structure; V66I:V73I:Y160F PfPNP with ImmH and phosphate, 2.8 Å, space group I4(1)32, 2 molecules in the asymmetric unit; hexamer as a trimer of dimers.
Substrate in data set [12]: OC[C@H]1O[C@@H](n2cnc3c(O)ncnc32)[C@H](O)[C@@H]1O
The experiment in a line: Substrate kinetics, xanthine oxidase coupled phosphorolysis assay. It counts as biochemical, Plasmodium falciparum. The note with it: other: wild type PfPNP, substrate = label, 50 mM KH2PO4 pH 7.4, mean ± SD. Here is the method:
Kinetic assays were completed in 50 mM KH2PO4 at pH 7.4 measuring phosphorylysis of inosine or MTI by PNP in a coupled reaction with 60 milliunits/ml xanthine oxidase to convert hypoxanthine to uric acid. Formation of uric acid was measured at 293 nm wavelength (E293 = 12.9 mM^−1 cm^−1), [20]. In cases where activity for MTI was low, increased protein concentration (10 µg/ml) was used to check enzyme function. Assays were performed with excess substrate in the presence of inhibitors. Inhibition studies measured both initial (Ki) and slow onset inhibition (Ki*) for inhibitors. The initial onset inhibition was analyzed by using the following equation: ν ο = (k cat×S)/(K m(1+I/Ki)+S), ν ο is the steady state rate, k cat catalytic rate, S is substrate concentration, Km is Michealis constant for inosine, I is inhibitor concentration, and Ki is the equilibrium dissociation constant.

T1 sequence (Q8T9Z7 whole entry V66I/V73I/Y160F): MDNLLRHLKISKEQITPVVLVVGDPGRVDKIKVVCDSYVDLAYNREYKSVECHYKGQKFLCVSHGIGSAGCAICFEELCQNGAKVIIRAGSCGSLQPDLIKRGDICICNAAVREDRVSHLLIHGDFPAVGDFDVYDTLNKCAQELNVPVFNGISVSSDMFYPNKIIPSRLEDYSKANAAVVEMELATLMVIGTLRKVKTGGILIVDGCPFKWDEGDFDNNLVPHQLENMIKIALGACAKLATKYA
T4 sequence (Q8T9Z7 whole entry V66I/V73I): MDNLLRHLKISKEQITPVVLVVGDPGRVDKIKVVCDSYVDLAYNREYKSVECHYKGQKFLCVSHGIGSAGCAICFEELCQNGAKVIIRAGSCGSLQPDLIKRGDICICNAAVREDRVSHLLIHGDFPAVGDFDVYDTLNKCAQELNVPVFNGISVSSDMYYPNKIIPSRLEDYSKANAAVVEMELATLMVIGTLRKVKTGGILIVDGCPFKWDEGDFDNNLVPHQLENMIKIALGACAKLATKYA
T3 sequence (Q8T9Z7 whole entry Y160F): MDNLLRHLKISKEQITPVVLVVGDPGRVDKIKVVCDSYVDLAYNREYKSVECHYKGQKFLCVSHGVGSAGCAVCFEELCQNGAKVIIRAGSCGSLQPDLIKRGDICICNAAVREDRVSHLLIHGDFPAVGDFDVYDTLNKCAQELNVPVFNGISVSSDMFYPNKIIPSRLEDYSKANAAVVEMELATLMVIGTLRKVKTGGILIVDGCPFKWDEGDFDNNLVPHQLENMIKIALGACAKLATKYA
T2 sequence (Q8I3X4 whole entry V66I): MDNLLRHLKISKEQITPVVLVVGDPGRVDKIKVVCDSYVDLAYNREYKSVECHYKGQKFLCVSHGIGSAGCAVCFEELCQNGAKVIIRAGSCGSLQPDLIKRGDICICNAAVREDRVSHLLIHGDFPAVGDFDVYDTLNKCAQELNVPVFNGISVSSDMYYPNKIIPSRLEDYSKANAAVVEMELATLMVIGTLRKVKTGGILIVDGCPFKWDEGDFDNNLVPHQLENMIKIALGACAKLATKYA

With `Nc1nc2c(CN3C[C@H](CO)[C@@H](O)C3)c[nH]c2c(=O)[nH]1` [DADMe-Immucillin-G], the “efficacy against P. falciparum” value in [1] is “effective against P. falciparum in the Aotus model”.

What is called Ki is a measure of affinity in units of concentration, obtained from inhibition or displacement. For the molecule `O=c1[nH]cnc2c([C@@H]3N[C@H](CO)[C@@H](O)[C@H]3O)c[nH]c12` [ImmH, Immucillin-H], the Ki in data set [2] was 3.6 nM; in [4], 0.93 nM; in [5], 270 nM; in [7] (initial) it was 450 nM; in data set [7] (slow onset) it was 2 nM. Moreover, in [3], the “Ki*” value is listed as “(-) ^c”. The “effect on P. falciparum” value in data set [6] is on record as “causes P. falciparum cell death by purine starvation”.

Take `CSC[C@H]1N[C@@H](c2c[nH]c3c(=O)[nH]cnc23)[C@H](O)[C@@H]1O` [MT-ImmH, 5′-methylthioimmucillin-H]: the “less effective for TgPNP than for PfPNP (Ki*)” value in [8] is given as “more than 160 fold”. The Ki in data set [7] (initial) was 7100 nM; in [7] (slow onset), 290 nM. Moreover, the “greater specificity for PfPNP versus mammalian PNP” value in [9] is listed as 100 fold.

B1: Plasmodium falciparum purine nucleoside phosphorylase (PfPNP), wild type (enzyme, Plasmodium falciparum (3D7 strain))
chain: DNLLRHLKISKEQITPVVLVVGDPGRVDKIKVVCDSYVDLAYNREYKSVECHYKGQKFLCVSHGVGSAGCAVCFEELCQNGAKVIIRAGSCGSLQPDLIKRGDICICNAAVREDRVSHLLIHGDFPAVGDFDVYDTLNKCAQELNVPVFNGISVSSDMYYPNKIIPSRLEDYSKANAAVVEMELATLMVIGTLRKVKTGGILIVDGCPFKWDEGDFDNNLVPHQLENMIKIALGACAKLATKYA
notes: purine nucleoside phosphorylase of P. falciparum 3D7; also called PfPNP WT; wild-type PfPNP; source: E. coli Top 10, purified (Ni-NTA); not shown: c-Myc, C-terminal, kept; His6, C-terminal, kept
Broadly, the stoichiometry N is a count of units in the complex or per binding partner. In the case of B1, in data set [10], the “stoichiometry N” value was 6.

B2: V66I:V73I:Y160F PfPNP (triple mutant Val66Ile:Val73Ile:Tyr160Phe) (enzyme)
chain: B1 chain with V65I, V72I, Y159F
notes: also called Pf V66I:V73I:Y160F; triple PfPNP mutant; source: E. coli Top 10, purified (Ni-NTA; Superdex 200 for larger scale); not shown: c-Myc, C-terminal, kept; His6, C-terminal, kept
For the molecule B2, in data set [11], the “stoichiometry N” value came out at 6.

B3: PfPNP (wild type) (Plasmodium falciparum 3D7) (protein)
chain: MDNLLRHLKISKEQITPVVLVVGDPGRVDKIKVVCDSYVDLAYNREYKSVECHYKGQKFLCVSHGVGSAGCAVCFEELCQNGAKVIIRAGSCGSLQPDLIKRGDICICNAAVREDRVSHLLIHGDFPAVGDFDVYDTLNKCAQELNVPVFNGISVSSDMYYPNKIIPSRLEDYSKANAAVVEMELATLMVIGTLRKVKTGGILIVDGCPFKWDEGDFDNNLVPHQLENMIKIALGACAKLATKYA
notes: made in house; host or cells: Escherichia coli Top 10
As usually defined, the Km is the concentration of substrate that gives half-maximal velocity. As usually defined, the kcat is the maximal rate divided by the concentration of active sites. Broadly, the kcat/Km is the turnover number divided by the Michaelis constant. Take B3: in data set [12], the Km amounted to 11 ± 5 µM, the kcat came out at 1.7 ± 0.7 s⁻¹ and the kcat/Km turned out to be 150000 M⁻¹ s⁻¹.
